Data reported in ChEMBL document CHEMBL1147500, “A prodrug approach to COX-2 inhibitors with methylsulfone” (Bioorg Med Chem Lett, 2004).
Values belong to the molecule of their own block, whether it stands above or below them.

Legend:
Rattus norvegicus [1] = experiment: Inhibition of adjuvant-induced arthritis (AA) in SD rats upon peroral administration (BID) at 0.3 mg/kg/day; assay type: functional; conditions: route oral
[2] = Area under curve (0-24 hr) at a dose of 10 mg/kg in male SD rats; assay type: ADME, organism-based; design: time < 24 hr, dose 10 mg/kg; conditions: rat, in vivo
[3] = Cmax value at a dose of 10 mg/kg in male SD rats; assay type: ADME, organism-based; design: dose 10 mg/kg; conditions: rat, in vivo
[4] = Tmax value at a dose of 10 mg/kg in male SD rats; assay type: ADME, organism-based; design: dose 10 mg/kg; conditions: rat, in vivo
Rattus norvegicus [5] = experiment: Effective dose against adjuvant-induced arthritis (AA) in SD rats upon peroral administration (QD); assay type: functional; conditions: po
[6] = Area under curve (0-24 hr) at a dose of 100 mg/kg in male SD rats; assay type: ADME, organism-based; design: time < 24 hr, dose 100 mg/kg; conditions: rat, in vivo
[7] = Tmax value at a dose of 50 mg/kg in male SD rats; assay type: ADME, organism-based; design: dose 50 mg/kg; conditions: rat, in vivo
[8] = Area under curve (0-24 hr) at a dose of 50 mg/kg in male SD rats; assay type: ADME, organism-based; design: time < 24 hr, dose 50 mg/kg; conditions: rat, in vivo
[9] = Cmax value at a dose of 50 mg/kg in male SD rats; assay type: ADME, organism-based; design: dose 50 mg/kg; conditions: rat, in vivo
[10] = Cmax value at a dose of 100 mg/kg in male SD rats; assay type: ADME, organism-based; design: dose 100 mg/kg; conditions: rat, in vivo
[11] = biological target: T1, Prostaglandin G/H synthase 2 (Mus musculus, UniProt Q05769); experiment: Inhibitory concentration against prostaglandin G/H synthase 2 in mouse peritoneal macrophages
T1 sequence (Q05769 whole entry): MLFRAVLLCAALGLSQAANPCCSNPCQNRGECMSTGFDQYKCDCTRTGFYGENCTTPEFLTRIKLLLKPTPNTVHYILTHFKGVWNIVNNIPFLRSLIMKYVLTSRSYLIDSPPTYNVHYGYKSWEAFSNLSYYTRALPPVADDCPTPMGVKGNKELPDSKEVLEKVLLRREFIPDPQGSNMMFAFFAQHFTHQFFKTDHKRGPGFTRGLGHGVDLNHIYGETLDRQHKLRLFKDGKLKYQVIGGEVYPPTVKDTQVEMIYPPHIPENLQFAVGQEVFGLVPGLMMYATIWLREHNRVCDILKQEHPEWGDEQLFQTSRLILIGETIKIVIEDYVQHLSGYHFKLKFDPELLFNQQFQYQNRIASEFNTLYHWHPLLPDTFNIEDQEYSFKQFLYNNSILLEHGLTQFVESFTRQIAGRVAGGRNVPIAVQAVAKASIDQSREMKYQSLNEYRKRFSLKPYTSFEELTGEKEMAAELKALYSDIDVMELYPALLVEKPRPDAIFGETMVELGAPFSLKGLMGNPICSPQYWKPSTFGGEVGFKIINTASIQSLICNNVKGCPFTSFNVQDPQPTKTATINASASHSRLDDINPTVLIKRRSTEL

[12] = biological target: T2, Prostaglandin G/H synthase 1 (Mus musculus, UniProt P22437); experiment: Inhibitory concentration against prostaglandin G/H synthase 1 in mouse peritoneal macrophages
T2 sequence (P22437 whole entry): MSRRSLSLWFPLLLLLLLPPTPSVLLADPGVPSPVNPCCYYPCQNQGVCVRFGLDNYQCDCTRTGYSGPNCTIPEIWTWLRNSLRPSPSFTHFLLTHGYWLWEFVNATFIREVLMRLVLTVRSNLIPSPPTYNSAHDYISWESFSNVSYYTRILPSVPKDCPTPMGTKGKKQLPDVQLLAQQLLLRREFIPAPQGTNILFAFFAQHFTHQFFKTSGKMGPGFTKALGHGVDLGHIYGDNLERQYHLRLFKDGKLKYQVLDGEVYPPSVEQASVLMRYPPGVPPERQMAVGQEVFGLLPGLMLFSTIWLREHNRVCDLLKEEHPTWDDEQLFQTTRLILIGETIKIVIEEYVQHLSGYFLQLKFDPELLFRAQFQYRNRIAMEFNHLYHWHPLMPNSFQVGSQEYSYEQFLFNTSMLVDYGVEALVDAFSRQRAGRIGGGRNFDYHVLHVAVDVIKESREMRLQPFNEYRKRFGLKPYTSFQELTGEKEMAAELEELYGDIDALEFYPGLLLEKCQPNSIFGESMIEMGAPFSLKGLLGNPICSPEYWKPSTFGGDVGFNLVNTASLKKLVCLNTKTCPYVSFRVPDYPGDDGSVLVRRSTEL

[13] = Tmax value at a dose of 100 mg/kg in male SD rats; assay type: ADME, organism-based; design: dose 100 mg/kg; conditions: rat, in vivo
[14] = Cmax upon oral administration in male Beagle dog at 10 mg/kg; assay type: ADME, organism-based, Canis lupus familiaris; design: dose 10 mg/kg, route oral; conditions: in vivo
Rattus norvegicus [15] = experiment: Effective dose against adjuvant-induced arthritis (AA) in male lewis rats upon peroral administration (bid); assay type: functional; conditions: po
Rattus norvegicus [16] = experiment: Inhibition of adjuvant-induced arthritis (AA) in SD rats upon peroral administration (BID) at 0.1 mg/kg/day; assay type: functional; conditions: route oral

Structure (SMILES): COc1ccc2c(c1)c(CC(=O)O)c(C)n2C(=O)c1ccc(Cl)cc1 [INDOMETHACIN]
inhibition in vivo at 0.3 mg/kg/day (Rattus norvegicus [1]): 60%

Structure (SMILES): CC1(C)OC(c2ccc(S(C)(=O)=O)cc2)=C(c2cc(F)cc(F)c2)C1=O
ED50 (Rattus norvegicus [5]): 0.03 mg/kg/day | AUC(0-t) at 24 h [6]: 487000 ng·h/mL | Tmax [7]: 4.3 h | AUC(0-t) at 24 h [2]: 23100 ng·h/mL | Cmax [3]: 2580 ng/mL | AUC(0-t) at 24 h [8]: 359000 ng·h/mL | Cmax [9]: 11700 ng/mL | Tmax [4]: 2 h | Cmax [10]: 24900 ng/mL | IC50 [11]: 0.0529 µM | IC50 [12]: 13.2 µM | Tmax [13]: 5 h | Cmax [14]: 130 ng/mL

Structure (SMILES): C[S+]([O-])c1ccc(C2=C(c3cc(F)cc(F)c3)C(=O)C(C)(C)O2)cc1 (stereo not drawn)
ED50 (Rattus norvegicus [15]): ~0.2 mg/kg/day | inhibition in vivo at 0.1 mg/kg/day (Rattus norvegicus [16]): 40% | inhibition in vivo at 0.3 mg/kg/day (Rattus norvegicus [1]): 76%

The next lines start with the values.

AUC(0-t) at 24 h [2]: 12700 ng·h/mL | Cmax [3]: 1390 ng/mL | Tmax [4]: 1.5 h
Structure (SMILES): CC1(C)OC(c2ccc(S(C)(=O)=O)cc2)=C(c2cccc(Cl)c2)C1=O

AUC(0-t) at 24 h [2]: 3610 ng·h/mL | Cmax [3]: 460 ng/mL | Tmax [4]: 0.5 h
Structure (SMILES): C[S+]([O-])c1ccc(C2=C(c3cccc(Cl)c3)C(=O)C(C)(C)O2)cc1 (stereo not drawn)
